Laboratory results reported in patent US5744298A, “DNA sequences which encode immunoreactive HCMV-specific peptides” (Behringwerke Aktiengesellschaft, priority 1991, dated 1998).
Where no end group is shown, it is not given here.

B1: recombinant protein XP1: recombinant protein section, amino acid 718-880 of HCMV protein pp150 (protein)
chain: DPRFTDTLVDITDTETSAKPPVTTAYKFEQPTLTFGAGVNVPAGAGAAILTPTPVNPSTAPAPAPTPTFAGTQTPVNGNSPWAPTAPLPGDMNPANWPRERAWALKNPHLAYNPFRMPTTSTASQNTVSTTPRRPSTPRAAVTQTASRDAADEVWALRDQTA
B2: HCMV protein pp150: HCMV protein pp150 (protein, UniProt P08318 1-1048, looked up)
Large structural …: MSLQFIGLQRRDVVALVNFLRHLTQKPDVDLEAHPKILKKCGEKRLHRRTVLFNELMLWLGYYRELRFHNPDLSSVLEEFEVRCVAVARRGYTYPFGDRGKARDHLAVLDRTEFDTDVRHDAEIVERALVSAVILAKMSVRETLVTAIGQTEPIAFVHLKDTEVQRIEENLEGVRRNMFCVKPLDLNLDRHANTALVNAVNKLVYTGRLIMNVRRSWEELERKCLARIQERCKLLVKELRMCLSFDSNYCRNILKHAVENGDSADTLLELLIEDFDIYVDSFPQSAHTFLGARSPSLEFDDDANLLSLGGGSAFSSVPKKHVPTQPLDGWSWIASPWKGHKPFRFEAHGSLAPAAEAHAARSAAVGYYDEEEKRRERQKRVDDEVVQREKQQLKAWEERQQNLQQRQQQPPPPARKPSASRRLFGSSADEDDDDDDDEKNIFTPIKKPGTSGKGAASGGGVSSIFSGLLSSGSQKPTSGPLNIPQQQQRHAAFSLVSPQVTKASPGRVRRDSAWDVRPLTETRGDLFSGDEDSDSSDGYPPNRQDPRFTDTLVDITDTETSAKPPVTTAYKFEQPTLTFGAGVNVPAGAGAAILTPTPVNPSTAPAPAPTPTFAGTQTPVNGNSPWAPTAPLPGDMNPANWPRERAWALKNPHLAYNPFRMPTTSTASQNTVSTTPRRPSTPRAAVTQTASRDAADEVWALRDQTAESPVEDSEEEDDDSSDTGSVVSLGHTTPSSDYNNDVISPPSQTPEQSTPSRIRKAKLSSPMTTTSTSQKPVLGKRVATPHASARAQTVTSTPVQGRLEKQVSGTPSTVPATLLQPQPASSKTTSSRNVTSGAGTSSASSARQPSASASVLSPTEDDVVSPATSPLSMLSSASPSPAKSAPPSPVKGRGSRVGVPSLKPTLGGKAVVGRPPSVPVSGSAPGRLSGSSRAASTTPTYPAVTTVYPPSSTAKSSVSNAPPVASPSILKPGASAALQSRRSTGTAAVGSPVKSTTGMKTVAFDLSSPQKSGTGPQPGSAGMGGAKTPSDAVQNILQKIEKIKNTEE

Experiments:
[1] = test system: CMV IgG-positive sera; experiment: ELISA of peptide-coated microtiter plates with CMV IgG-positive human sera (localization of epitopes); format: binding; conditions: plate coated with 2.5 μg peptide per ml, serum dilution 1:2; for Reactivity (individual reactivities of particularly reactive peptides with the assayed group of CMV IgG-positive sera, in percent): Table 3
Description: A microtiter plate with 96 wells was coated with a synthesized peptide. To do this, a solution of 2.5 μg of peptide per ml of carbonate buffer was made up and introduced in 100 μl portions into the wells for the coating. The peptides were adsorbed onto the surfaces at 4° C. overnight and, after removal of the peptide solution, the wells were washed several times with washing buffer (50 mM Tris, pH 7.2, 10 mM EDTA, 0.2% Tween 20). Then individual human serum samples in a 1:2 dilution were introduced and incubated at 37° C. for 1 hour. After another washing step, the conjugate antibody specific for human IgG antibodies or human IgM antibodies and labeled with peroxidase was added and the mixture was incubated at room temperature for 0.5 hour. The reaction was subsequently stopped by adding 0.5M sulfuric acid and extinction of the individual samples was measured at a wavelength of 450/650 nm in a photometer.
To test the immunogenicity, peptides of various length from the complete amino-acid sequence region from 718 to 880 of the HCMV protein pp150 (Tab. 2 and 3) were synthesized as described in Example 1. Subsequently, as in Example 2, the microtiter plates were coated with the synthesized peptides, and the immunological reactivity was assayed. […] The three immunologically reactive peptides have the following sequences: […]

[2] = test system: monoclonal antibody 87-55/02; experiment: Reaction of the monoclonal antibody 87-55/02 with peptide epitopes (ELISA, immunoblot); format: binding; conditions: measured as immunoblot and ELISA reactivity
Description: It was concluded from the method for selecting the monoclonal antibody that the identified epitope must have a very important structure which is not even destroyed by denaturation of the complete protein. This monoclonal antibody correspondingly reacts both with the synthesized peptide 2.7 (SEQ ID NO:26) and with the recombinant protein XP1 (SEQ ID NO:33) and the pp150 protein of HCMV.

Molecule	Reactivity (individual reactivities of particularly reactive peptides with the assayed group of CMV IgG-positive sera, in percent) [1] [%]	Reactivity (individual reactivities of the synthetic pXP1 segments with the assayed group of CMV IgG-positive sera, in percent) ([1]; Table 2) [%]	immunological reaction of monoclonal antibody 87-55/02 with protein [2]
ala tyr lys phe glu gln pro thr leu thr phe gly ala gly val asn val pro ala gly ala gly ala ala ile leu thr pro thr pro val asn pro ser thr ala pro ala pro ala pro (AYKFGQPTLTFGAGVNVPAGAGAAILTPTPVNPSTAPAPAP) [Peptide 1.13]	90		
phe glu gln pro thr leu thr phe gly ala gly val asn val pro ala gly ala gly ala ala ile leu thr pro thr pro val asn pro ser thr ala pro ala pro ala (FEQPTTLTFGAGVNVPAGAGAAILTPTPVNPSTAPAPA) [Peptide 1.4]	90		
pro thr leu thr phe gly ala gly val asn val pro ala gly ala gly ala ala ile leu thr pro thr pro val asn pro ser thr ala pro ala pro ala pro NH2 (PTLTFGAGVNVPAGAGAAILTPTPVNPSTAPAPAP-NH2) [Peptide 1.6]	90	90	
B1			reacts
B2			unambiguous immunological reaction
